Values of other authors as cited in patent publication US20060024247A1, “Oral care formulations comprising highly bioavailable Coenzyme Q-10 cyclodextrin complex” (BioActives, LLC, priority 2004, published 2006).

SMILES: COC1=C(OC)C(=O)C(C/C=C(\C)CC/C=C(\C)CC/C=C(\C)CC/C=C(\C)CC/C=C(\C)CC/C=C(\C)CC/C=C(\C)CC/C=C(\C)CC/C=C(\C)CCC=C(C)C)=C(C)C1=O [CoQ-10, Coenzyme Q-10]
- bioavailability: very poor
- solubility in water: practically insoluble in water
